According to patent US20260138958A1, “SUBSTITUTED N-PHENYLURACILS AND SALTS THEREOF, AND USE THEREOF AS HERBICIDAL ACTIVE SUBSTANCES” (Bayer Aktiengesellschaft, priority 2022, published 2026):

Key:
Type in all cases: in vivo
[1] = test system: Abutilon theophrasti (ABUTH); test: Post-emergence herbicidal action, greenhouse pot test
Procedure, shortened: (§1)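 Weeds grown in sandy loam under controlled greenhouse conditions were sprayed at the one-leaf stage, 2 to 3 weeks after sowing, with WP or EC formulations as aqueous suspension or emulsion plus 0.5% additive at 600 l/ha water. Damage was scored visually after about 3 weeks versus untreated controls (0% = like control, 100% = dead).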

[2] = test system: Alopecurus myosuroides (ALOMY); test: as above
Procedure, shortened: as §1

[3] = test system: Amaranthus retroflexus (AMARE); test: as above; details: Amaranthus retroflexus, 504 h
Procedure, shortened: as §1

[4] = test system: Bassia scoparia (KCHSC); test: as above
Procedure, shortened: as §1

[5] = test system: Digitaria sanguinalis (DIGSA); test: as above
Procedure, shortened: as §1

[6] = test system: Echinochloa crus-galli (ECHCG); test: as above
Procedure, shortened: as §1

[7] = test system: Lolium rigidum (LOLRI); test: as above
Procedure, shortened: as §1

[8] = test system: Pharbitis purpurea (PHBPU); test: as above; details: Ipomoea purpurea, 504 h
Procedure, shortened: as §1

[9] = test system: Polygonum convolvulus (POLCO); test: as above
Procedure, shortened: as §1

[10] = test system: Setaria viridis (SETVI); test: as above; details: Setaria viridis, 504 h
Procedure, shortened: as §1

[11] = test system: Tripleurospermum inodorum (MATIN); test: as above; details: Tripleurospermum inodorum, 504 h, 20 g/ha, read-out: Post-emergence effect at 20 g/ha against MATIN in %
Procedure, shortened: as §1

[12] = test system: Veronica persica (VERPE); test: as above
Procedure, shortened: as §1

[13] = test system: Viola tricolor (VIOTR); test: as above
Procedure, shortened: as §1

[14] = test system: Triticum aestivum (TRZAS); test: Post-emergence crop plant compatibility, greenhouse pot test; details: Triticum aestivum, in vivo
Procedure, shortened: (§2)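 Crops grown in sandy loam in the greenhouse were sprayed post-emergence at the one-leaf stage, 2–3 weeks after sowing, with WP or EC formulations plus 0.5% additive at 600 l/ha water. Damage was rated visually after about 3 weeks against untreated controls (0% = like control, 100% = dead).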

[15] = test system: Zea mays (ZEAMX); test: as above; details: Zea mays, in vivo
Procedure, shortened: as §2

SMILES: Cn1c(C(F)(F)F)cc(=O)n(-c2cc(Oc3ccccc3OCC(=O)OCC3CC34CC4)c(Cl)cc2F)c1=O (stereo not drawn) [I.7-18, Spiro[2.2]pentan-1-ylmethyl (2-{2-chloro-4-fluoro-5-[3-methyl-2,6-dioxo-4-(trifluoromethyl)-3,6-dihydropyrimidin-1(2H)-yl]phenoxy}phenoxy)acetate]
- Post-emergence effect at 1.25 g/ha against ABUTH in % ([1]; 1.25 g/ha): 100%
- pest or weed control at 5 g/ha ([1]; Abutilon theophrasti, 504 h, 5 g/ha, read-out: Post-emergence effect at 5 g/ha against ABUTH in %): 100%
- pest or weed control at 20 g/ha ([1]; Abutilon theophrasti, 504 h, 20 g/ha, read-out: Post-emergence effect at 20 g/ha against ABUTH in %): 100%
- Post-emergence effect at 5 g/ha against ALOMY in % ([2]; 5 g/ha): 80%
- pest or weed control at 20 g/ha ([2]; Alopecurus myosuroides, 504 h, 20 g/ha, read-out: Post-emergence effect at 20 g/ha against ALOMY in %): 100%
- pest or weed control at 1.25 g/ha ([3]; 1.25 g/ha, read-out: Post-emergence effect at 1.25 g/ha against AMARE in %): 100%
- pest or weed control at 5 g/ha ([3]; 5 g/ha, read-out: Post-emergence effect at 5 g/ha against AMARE in %): 100%
- pest or weed control at 20 g/ha ([3]; 20 g/ha, read-out: Post-emergence effect at 20 g/ha against AMARE in %): 100%
- Post-emergence effect at 1.25 g/ha against KCHSC in % ([4]; 1.25 g/ha): 100%
- Post-emergence effect at 5 g/ha against KCHSC in % ([4]; 5 g/ha): 100%
- Post-emergence effect at 20 g/ha against KCHSC in % ([4]; 20 g/ha): 100%
- Post-emergence effect at 1.25 g/ha against DIGSA in % ([5]; 1.25 g/ha): 100%
- Post-emergence effect at 5 g/ha against DIGSA in % ([5]; 5 g/ha): 100%
- Post-emergence effect at 20 g/ha against DIGSA in % ([5]; 20 g/ha): 100%
- Post-emergence effect at 5 g/ha against ECHCG in % ([6]; 5 g/ha): 100%
- pest or weed control at 20 g/ha ([6]; Echinochloa crus-galli, 504 h, 20 g/ha, read-out: Post-emergence effect at 20 g/ha against ECHCG in %): 100%
- Post-emergence effect at 20 g/ha against LOLRI in % [7]: 100%
- pest or weed control at 5 g/ha ([8]; 5 g/ha, read-out: Post-emergence effect at 5 g/ha against PHBPU in %): 100%
- pest or weed control at 20 g/ha ([8]; 20 g/ha, read-out: Post-emergence effect at 20 g/ha against PHBPU in %): 100%
- Post-emergence effect at 1.25 g/ha against POLCO in % ([9]; 1.25 g/ha): 100%
- pest or weed control at 5 g/ha ([9]; Fallopia convolvulus, 504 h, 5 g/ha, read-out: Post-emergence effect at 5 g/ha against POLCO in %): 100%
- pest or weed control at 20 g/ha ([9]; Fallopia convolvulus, 504 h, 20 g/ha, read-out: Post-emergence effect at 20 g/ha against POLCO in %): 100%
- pest or weed control at 5 g/ha ([10]; 5 g/ha, read-out: Post-emergence effect at 5 g/ha against SETVI in %): 100%
- pest or weed control at 20 g/ha ([10]; 20 g/ha, read-out: Post-emergence effect at 20 g/ha against SETVI in %): 100%
- pest or weed control at 20 g/ha [11]: 100%
- Post-emergence effect at 1.25 g/ha against VERPE in % ([12]; 1.25 g/ha): 80%
- pest or weed control at 5 g/ha ([12]; Veronica persica, 504 h, 5 g/ha, read-out: Post-emergence effect at 5 g/ha against VERPE in %): 100%
- pest or weed control at 20 g/ha ([12]; Veronica persica, 504 h, 20 g/ha, read-out: Post-emergence effect at 20 g/ha against VERPE in %): 100%
- Post-emergence effect at 1.25 g/ha against VIOTR in % ([13]; 1.25 g/ha): 100%
- Post-emergence effect at 5 g/ha against VIOTR in % ([13]; 5 g/ha): 100%
- pest or weed control at 20 g/ha ([13]; Viola tricolor, 504 h, 20 g/ha, read-out: Post-emergence effect at 20 g/ha against VIOTR in %): 100%
- Post-emergence effect at 1.25 g/ha against TRZAS in % [14]: 10%
- Post-emergence effect at 1.25 g/ha against ZEAMX in % [15]: 20%
